IC50 data for twelve compounds are collected here from patent US20260098025A1, “DIMERIC COMPOUNDS AS INHIBITORS OF GLYCOGEN SYNTHASE 1 (GYS1) AND METHODS OF USE THEREOF” (Maze Therapeutics, Inc., priority 2022, published 2026).

The target in this test is T1, recombinant hGYS1/GN1 protein (Homo sapiens, UniProt P13807).
T1 sequence (P13807 1-737): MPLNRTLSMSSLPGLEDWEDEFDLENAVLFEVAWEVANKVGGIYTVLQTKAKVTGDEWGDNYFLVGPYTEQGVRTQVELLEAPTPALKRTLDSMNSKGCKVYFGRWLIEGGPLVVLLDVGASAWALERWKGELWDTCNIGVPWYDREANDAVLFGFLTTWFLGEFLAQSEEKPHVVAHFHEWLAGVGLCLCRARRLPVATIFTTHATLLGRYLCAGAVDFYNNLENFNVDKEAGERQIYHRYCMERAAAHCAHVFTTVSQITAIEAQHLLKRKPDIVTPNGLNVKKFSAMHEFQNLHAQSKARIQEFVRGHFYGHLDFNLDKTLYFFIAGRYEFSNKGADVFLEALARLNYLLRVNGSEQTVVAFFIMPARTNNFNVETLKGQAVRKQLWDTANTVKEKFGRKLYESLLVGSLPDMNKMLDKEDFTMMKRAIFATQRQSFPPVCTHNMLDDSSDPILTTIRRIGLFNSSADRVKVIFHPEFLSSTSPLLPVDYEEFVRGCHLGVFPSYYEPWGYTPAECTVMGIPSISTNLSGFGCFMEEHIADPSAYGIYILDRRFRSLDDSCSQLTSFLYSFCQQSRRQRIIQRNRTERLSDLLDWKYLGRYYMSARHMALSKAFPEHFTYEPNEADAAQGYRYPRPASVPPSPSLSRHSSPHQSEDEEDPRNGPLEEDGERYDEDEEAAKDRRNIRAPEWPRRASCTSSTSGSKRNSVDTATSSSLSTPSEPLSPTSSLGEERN
T1 sequence (P46976 1-350 partner): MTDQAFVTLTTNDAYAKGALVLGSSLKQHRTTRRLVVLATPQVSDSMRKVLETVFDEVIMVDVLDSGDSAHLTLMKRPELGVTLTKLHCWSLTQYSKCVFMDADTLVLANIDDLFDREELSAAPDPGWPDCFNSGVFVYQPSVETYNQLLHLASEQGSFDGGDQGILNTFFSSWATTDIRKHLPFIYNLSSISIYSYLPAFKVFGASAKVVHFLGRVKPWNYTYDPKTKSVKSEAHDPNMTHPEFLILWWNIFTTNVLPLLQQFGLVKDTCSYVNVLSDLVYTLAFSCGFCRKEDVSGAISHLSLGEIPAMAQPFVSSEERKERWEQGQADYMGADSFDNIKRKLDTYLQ
Briefly: GYS1 coupled enzyme assay (PK/LDH, NADH absorbance at 340 nm). Type of test: biochemical. Particulars: geometric mean of at least 2 assay runs on separate days; hGYS1/GN1 50 nM, Glucose-6-Phosphate 1 mM, UDP-Glucose 0.8 mM. The source says:
The GYS1 coupled enzyme assay is a kinetic biochemical assay that indirectly quantifies the rate of glycogen synthesis by coupling the conversion of GYS1 substrate UDP-glucose into UDP with downstream enzymatic reactions. UDP is released from UDP-glucose as glucose monomers are linked into the growing glycogen strand by GYS1. The coupled assay then proceeds with pyruvate kinase utilizing UDP and phospho(enol)pyruvate (PEP) to form pyruvate. Lactate dehydrogenase then converts pyruvate and NADH into lactate and NAD+. Oxidation of NADH to NAD+ can be measured continuously with a plate reader by quantifying the decrease in NADH absorbance at 340 nm over time.
Compounds that inhibit the hGYS1 enzyme and, subsequently, the downstream conversion of NADH to NAD+, were tested using assay ready plates (black, clear bottom 384 well plates) in a final DMSO reaction volume of 2.5% DMSO. The Assay Buffer contained 50 mM Tris pH 7.5, 2 mM MgCl2, and 100 mM KCl. Fresh stocks of BSA at a final concentration of 0.02% and TCEP at 1 mM were added before splitting buffer into hGYS1 buffer and substrate buffer. To the hGYS1 buffer, rabbit liver glycogen was added at a final concentration of 0.2% glycogen. Glucose-6-Phosphate was added at 1 mM, recombinant hGYS1/GN1 protein was added at 50 nM to the substrate buffer, phosphoenolpyruvate (PEP) was added at 2 mM, UDP-Glucose was added at 0.8 mM, NADH) was added at 0.6 mM, and Pyruvate Kinase/Lactate Dehydrogenase was added at 20 units/mL. The reaction was initiated by mixing hGYS1 buffer and substrate buffer at a 1:1 ratio. Both buffers were plated using a liquid dispensing device with hGYS1 buffer plated first followed by the substrate buffer. Plates were spun briefly to eliminate air bubbles and are immediately read in continuous mode at an absorbance of 340 nm, for 10 time points in one-minute increments, for a total of 10 minutes. The slope from these 10 time points was normalized to the positive and negative control wells. The duplicate % inhibition values are then averaged and fit to a Hill equation for dose response according to the Levenberg-Marquardt algorithm with the Hill equation maximum set to 100 and the minimum set to 0.
The results are shown in Table 2 below, which reports the IC50 of each compound. Unless otherwise specified, IC50 values are reported as the geometric mean of at least 2 assay runs on separate days. Each run represents the average of a technical replicate, where each compound was assayed twice in the same plate. As shown in the table below, the compounds of the present invention are potent inhibitors of human GYS1. A superscript “#” symbol in Table 2 indicates results from a single assay run.
Note that, in Table 2, the compounds are referred to by the corresponding Compound No. in Table 1, which is also referred to in the synthetic examples.

The structures appear in SMILES notation.

For orientation: IC50 means the concentration at which inhibition is half-maximal. For the compound `O=C(N[C@@H](c1ccccc1)c1ccc(C2CC2)c(F)n1)[C@@H]1C[C@@H](F)CN1C(=O)Cn1cc(OCCOCCOc2cn(CC(=O)N3C[C@H](F)C[C@H]3C(=O)N[C@@H](c3ccccc3)c3ccc(C4CC4)c(F)n3)nn2)nn1` [Compound 1, (2S,2′S,4R,4′R)-1,1′-(2,2′-(((oxybis(ethane-2,1-diyl))bis(oxy))bis(1H-1,2,3-triazole-4,1-diyl))bis(acetyl))bis(N-((S)-(5-cyclopropyl-6-fluoropyridin-2-yl)(phenyl)methyl)-4-fluoropyrrolidine-2-carboxamide)], the IC50 came out at 10.8 nM. For the compound `O=C(N[C@@H](c1ccccc1)c1ccc(C2CC2)c(F)n1)[C@@H]1C[C@@H](F)CN1C(=O)COCCOCCOCCOCCOCCOCCOCC(=O)N1C[C@H](F)C[C@H]1C(=O)N[C@@H](c1ccccc1)c1ccc(C2CC2)c(F)n1` [Compound 2, (2S,2′S,4R,4′R)-1,1′-(3,6,9,12,15,18,21-heptaoxatricosanedioyl)bis(N-((S)-(5-cyclopropyl-6-fluoropyridin-2-yl)(phenyl)methyl)-4-fluoropyrrolidine-2-carboxamide)], the IC50 was 5.6 nM. The figure for `O=C(COCCOCCOCCOCCOCCOCCOCCOCCOCCOCCOCCOCC(=O)N[C@@H](c1ccccc1)c1ccc(C2CC2)c(F)n1)N[C@@H](c1ccccc1)c1ccc(C2CC2)c(F)n1` [Compound 3, N^1,N^38-bis((S)-(5-cyclopropyl-6-fluoropyridin-2-yl)(phenyl)methyl)-3,6,9,12,15,18,21,24,27,30,33,36-dodecaoxaoctatriacontanediamide] is 5710 nM. The figure for `O=C(N[C@@H](c1ccccc1)c1ccc(C2CC2)c(F)n1)[C@@H]1C[C@@H](F)CN1C(=O)COCCOCC(=O)N1C[C@H](F)C[C@H]1C(=O)N[C@@H](c1ccccc1)c1ccc(C2CC2)c(F)n1` [Compound 4, (2S,2′S,4R,4′R)-1,1′-(2,2′-(ethane-1,2-diylbis(oxy))bis(acetyl))bis(N-((S)-(5-cyclopropyl-6-fluoropyridin-2-yl)(phenyl)methyl)-4-fluoropyrrolidine-2-carboxamide)] is 8910 nM; for `O=C(N[C@@H](c1ccccc1)c1ccc(C2CC2)c(F)n1)[C@@H]1C[C@@H](F)CN1C(=O)COCCOCCOCCOCCOCCOCC(=O)N1C[C@H](F)C[C@H]1C(=O)N[C@@H](c1ccccc1)c1ccc(C2CC2)c(F)n1` [Compound 5, (2S,2′S,4R,4′R)-1,1′-(3,6,9,12,15,18-hexaoxaicosanedioyl)bis(N-((S)-(5-cyclopropyl-6-fluoropyridin-2-yl)(phenyl)methyl)-4-fluoropyrrolidine-2-carboxamide)] it is 5.4 nM; for `O=C(COCCOCCOCCOCCOCCOCCOCCOCCOCCOCCOCC(=O)N[C@@H](c1ccccc1)c1ccc(C2CC2)c(F)n1)N[C@@H](c1ccccc1)c1ccc(C2CC2)c(F)n1` [Compound 6, N^1,N^35-bis((S)-(5-cyclopropyl-6-fluoropyridin-2-yl)(phenyl)methyl)-3,6,9,12,15,18,21,24,27,30,33-undecaoxapentatriacontanediamide] it is 7500 nM. The value for `O=C(N[C@@H](c1ccccc1)c1ccc(C2CC2)c(F)n1)[C@@H]1C[C@@H](F)CN1C(=O)Cn1cc(COCCOCc2cn(CC(=O)N3C[C@H](F)C[C@H]3C(=O)N[C@@H](c3ccccc3)c3ccc(C4CC4)c(F)n3)nn2)nn1` [Compound 7, (2S,2′S,4R,4′R)-1,1′-(2,2′-(((ethane-1,2-diylbis(oxy))bis(methylene))bis(1H-1,2,3-triazole-4,1-diyl))bis(acetyl))bis(N-((S)-(5-cyclopropyl-6-fluoropyridin-2-yl)(phenyl)methyl)-4-fluoropyrrolidine-2-carboxamide)] was 11.2 nM; that for `O=C(N[C@@H](c1ccccc1)c1ccc(C2CC2)c(F)n1)[C@@H]1C[C@@H](F)CN1C(=O)Cn1cc(COCCOc2cn(CC(=O)N3C[C@H](F)C[C@H]3C(=O)N[C@@H](c3ccccc3)c3ccc(C4CC4)c(F)n3)nn2)nn1` [Compound 8, (2S,4R)-N-((S)-(5-cyclopropyl-6-fluoropyridin-2-yl)(phenyl)methyl)-1-(2-(4-(2-((1-(2-((2S,4R)-2-(((S)-(5-cyclopropyl-6-fluoropyridin-2-yl)(phenyl)methyl)carbamoyl)-4-fluoropyrrolidin-1-yl)-2-oxoethyl)-1H-1,2,3-triazol-4-yl)methoxy)ethoxy)-1H-1,2,3-triazol-1-yl)acetyl)-4-fluoropyrrolidine-2-carboxamide] was 5.2 nM; that for `O=C(N[C@@H](c1ccccc1)c1ccc(C2CC2)c(F)n1)[C@@H]1C[C@@H](F)CN1C(=O)Cn1cc(OCCOc2cn(CC(=O)N3C[C@H](F)C[C@H]3C(=O)N[C@@H](c3ccccc3)c3ccc(C4CC4)c(F)n3)nn2)nn1` [Compound 9, (2S,2′S,4R,4′R)-1,1′-(2,2′-((ethane-1,2-diylbis(oxy))bis(1H-1,2,3-triazole-4,1-diyl))bis(acetyl))bis(N-((S)-(5-cyclopropyl-6-fluoropyridin-2-yl)(phenyl)methyl)-4-fluoropyrrolidine-2-carboxamide)] was 20.1 nM. With `O=C(N[C@@H](c1ccccc1)c1ccc(C2CC2)c(F)n1)[C@@H]1C[C@@H](F)CN1C(=O)COCCOCCOCCOCCOCC(=O)N1C[C@H](F)C[C@H]1C(=O)N[C@@H](c1ccccc1)c1ccc(C2CC2)c(F)n1` [Compound 10, (2S,2′S,4R,4′R)-1,1′-(3,6,9,12,15-pentaoxaheptadecanedioyl)bis(N-((S)-(5-cyclopropyl-6-fluoropyridin-2-yl)(phenyl)methyl)-4-fluoropyrrolidine-2-carboxamide)], the IC50 came to 14.4 nM. The figure for `O=C(N[C@@H](c1ccccc1)c1ccc(C2CC2)c(F)n1)[C@@H]1C[C@@H](F)CN1C(=O)COCCOCCOCCOCC(=O)N1C[C@H](F)C[C@H]1C(=O)N[C@@H](c1ccccc1)c1ccc(C2CC2)c(F)n1` [Compound 11, (2S,2′S,4R,4′R)-1,1′-(3,6,9,12-tetraoxatetradecanedioyl)bis(N-((S)-(5-cyclopropyl-6-fluoropyridin-2-yl)(phenyl)methyl)-4-fluoropyrrolidine-2-carboxamide)] is 14.6 nM; for `O=C(N[C@@H](c1ccccc1)c1ccc(C2CC2)c(F)n1)[C@@H]1C[C@@H](F)CN1C(=O)COCCOCCOCC(=O)N1C[C@H](F)C[C@H]1C(=O)N[C@@H](c1ccccc1)c1ccc(C2CC2)c(F)n1` [Compound 12, (2S,2′S,4R,4′R)-1,1′-(2,2′-((oxybis(ethane-2,1-diyl))bis(oxy))bis(acetyl))bis(N-((S)-(5-cyclopropyl-6-fluoropyridin-2-yl)(phenyl)methyl)-4-fluoropyrrolidine-2-carboxamide)] it is 82.1 nM.
